The structures appear in SMILES notation. Active and inactive are the calls of the source. No rule for the calls is given here.

This data set has as its system CCRIS mutagenicity, Ames/micronucleus/aberration tests. The experiment in a line: CCRIS mutagenicity studies.
Setting [1] is: Test System: AMES SALMONELLA TYPHIMURIUM, Strain/Indicator: TA98, Metabolic Activation: NONE, Method: STANDARD PLATE.
The mark [2] stands for this setting: Test System: AMES SALMONELLA TYPHIMURIUM, Strain/Indicator: TA100, Metabolic Activation: NONE, Method: STANDARD PLATE.
[3] abbreviates: Test System: AMES SALMONELLA TYPHIMURIUM, Strain/Indicator: TA1535, Metabolic Activation: NONE, Method: STANDARD PLATE.
The mark [4] stands for this setting: Test System: AMES SALMONELLA TYPHIMURIUM, Strain/Indicator: TA1537, Metabolic Activation: NONE, Method: STANDARD PLATE.

Regarding `O=C(O)c1cn(C2CC2)c2cc(N3CCNCC3)c(F)cc2c1=O`, the mutagenic call was “inactive; negative” (End Point: In vitro micronucleus, Test System: WTK-1 human lymphoma cells, Metabolic Activation: None); “inactive; negative” (Test System: AMES SALMONELLA TYPHIMURIUM, Strain/Indicator: HISC3076, Metabolic Activation: NONE, Method: STANDARD PLATE); “active; positive” (Test System: AMES SALMONELLA TYPHIMURIUM, Strain/Indicator: HISD3052, Metabolic Activation: NONE, Method: STANDARD PLATE); “inactive; negative” (Test System: AMES SALMONELLA TYPHIMURIUM, Strain/Indicator: HISG428, Metabolic Activation: NONE, Method: STANDARD PLATE); “active; positive” (Test System: AMES SALMONELLA TYPHIMURIUM, Strain/Indicator: TA92, Metabolic Activation: NONE, Method: STANDARD PLATE); “active; positive” (Test System: AMES SALMONELLA TYPHIMURIUM, Strain/Indicator: TA94, Metabolic Activation: NONE, Method: STANDARD PLATE). For the same compound, the mutagenic call runs as follows: (Test System: AMES SALMONELLA TYPHIMURIUM, Strain/Indicator: TA102, Metabolic Activation: NONE, Method: STANDARD PLATE) “active; positive”; (Test System: AMES SALMONELLA TYPHIMURIUM, Strain/Indicator: TA103, Metabolic Activation: NONE, Method: STANDARD PLATE) “active; positive”; (Test System: AMES SALMONELLA TYPHIMURIUM, Strain/Indicator: TA104, Metabolic Activation: NONE, Method: STANDARD PLATE) “inactive; negative”; (Test System: AMES SALMONELLA TYPHIMURIUM, Strain/Indicator: TA2425, Metabolic Activation: NONE, Method: STANDARD PLATE) “active; positive”; (Test System: AMES SALMONELLA TYPHIMURIUM, Strain/Indicator: TA2638, Metabolic Activation: NONE, Method: STANDARD PLATE) “active; positive”; (Test System: AMES SALMONELLA TYPHIMURIUM, Strain/Indicator: TA2661, Metabolic Activation: NONE, Method: STANDARD PLATE) “inactive; negative”. For the same compound, the mutagenic call is “active; positive” (Test System: AMES SALMONELLA TYPHIMURIUM, Strain/Indicator: TA2662, Metabolic Activation: NONE, Method: STANDARD PLATE); “inactive; negative” (Test System: AMES SALMONELLA TYPHIMURIUM, Strain/Indicator: TA2678, Metabolic Activation: NONE, Method: STANDARD PLATE); “active; positive” (Test System: CHINESE HAMSTER V-79, Strain/Indicator: V-79 (HPRT)/6-THIOGUANINE, Metabolic Activation: NONE); “active; positive” (Test System: MOUSE LYMPHOMA, Strain/Indicator: L5178Y (TK+/TK-), Metabolic Activation: NONE, Method: FLUCTUATION TEST).
For `O=[N+]([O-])c1c2ccccc2cc2c3c(ccc12)[C@@H](O)[C@H](O)C=C3`, the mutagenic call reads like this: under setting [1], “active; positive”; under setting [2], “inactive; negative”.
In the case of `CC1=C(C(=O)OC(C)C)C(c2cccc([N+](=O)[O-])c2)C(C(=O)OC2CN(C(c3ccccc3)c3ccccc3)C2)=C(N)N1` (stereo not given), the mutagenic call under setting [1] is “inactive; negative”; the mutagenic call (Test System: AMES SALMONELLA TYPHIMURIUM, Strain/Indicator: TA98, Metabolic Activation: RAT LIVER S-9, Method: STANDARD PLATE) was “inactive; negative”; the mutagenic call under setting [2] was “inactive; negative”; the mutagenic call (Test System: AMES SALMONELLA TYPHIMURIUM, Strain/Indicator: TA100, Metabolic Activation: RAT LIVER S-9, Method: STANDARD PLATE) was “inactive; negative”; the mutagenic call under setting [3] was “inactive; negative”; the mutagenic call (Test System: AMES SALMONELLA TYPHIMURIUM, Strain/Indicator: TA1535, Metabolic Activation: RAT LIVER S-9, Method: STANDARD PLATE) was “inactive; negative”. In addition, the mutagenic call by setting is: under setting [4], “inactive; negative”; (Test System: AMES SALMONELLA TYPHIMURIUM, Strain/Indicator: TA1537, Metabolic Activation: RAT LIVER S-9, Method: STANDARD PLATE) “inactive; negative”; (Test System: E.COLI, Strain/Indicator: WP2 UVRA, Metabolic Activation: NONE, Method: STANDARD PLATE) “inactive; negative”; (Test System: E.COLI, Strain/Indicator: WP2 UVRA, Metabolic Activation: RAT LIVER S-9, Method: STANDARD PLATE) “inactive; negative”.
In the case of `CC(C)(C)C1CCC2(CC1)CO2` (stereo not given), the mutagenic call under setting [2] was “inactive; negative”.
For the compound `CCc1cccc2c3c([nH]c12)C(CC)(CC(=O)O)OCC3` (stereo not given), the mutagenic call under setting [1] was “inactive; negative”; the mutagenic call (Test System: AMES SALMONELLA TYPHIMURIUM, Strain/Indicator: TA98, Metabolic Activation: RAT, LIVER, S-9, AROCLOR 1254, Method: STANDARD PLATE) is “inactive; negative”; the mutagenic call under setting [2] was “inactive; negative”; the mutagenic call (Test System: AMES SALMONELLA TYPHIMURIUM, Strain/Indicator: TA100, Metabolic Activation: RAT, LIVER, S-9, AROCLOR 1254, Method: STANDARD PLATE) is “inactive; negative”; the mutagenic call under setting [3] was “inactive; negative”; the mutagenic call (Test System: AMES SALMONELLA TYPHIMURIUM, Strain/Indicator: TA1535, Metabolic Activation: RAT, LIVER, S-9, AROCLOR 1254, Method: STANDARD PLATE) was “inactive; negative”. Also, the mutagenic call by setting is: under setting [4], “inactive; negative”; (Test System: AMES SALMONELLA TYPHIMURIUM, Strain/Indicator: TA1537, Metabolic Activation: RAT, LIVER, S-9, AROCLOR 1254, Method: STANDARD PLATE) “inactive; negative”; (Test System: E. COLI, Strain/Indicator: WP2 UVRA, Metabolic Activation: NONE, Method: STANDARD PLATE) “inactive; negative”; (Test System: E. COLI, Strain/Indicator: WP2 UVRA, Metabolic Activation: RAT, LIVER, S-9, AROCLOR 1254, Method: STANDARD PLATE) “inactive; negative”.
As for `C[N+](C)=c1ccc2nc3ccc(N)cc3sc-2c1`, the mutagenic call is, setting by setting: (Test System: Ames Salmonella typhimurium, Strain/Indicator: TA98, Metabolic Activation: Rat, Liver, S-9, Aroclor 1254 (10%), Method: Preincubation) “active; positive”; (Test System: Ames Salmonella typhimurium, Strain/Indicator: TA98, Strain/Sex: TA98, Metabolic Activation: None, Method: Preincubation) “active; positive”; (Test System: Ames Salmonella typhimurium, Strain/Indicator: TA100, Metabolic Activation: None, Method: Preincubation) “active; positive”; (Test System: Ames Salmonella typhimurium, Strain/Indicator: TA100, Metabolic Activation: Rat, Liver, S-9, Aroclor 1254 (10%), Method: Preincubation) “active; positive”; (Test System: E. coli, Strain/Indicator: WPM uvrA/pKM101, Metabolic Activation: None, Method: Preincubation) “active; positive”; (Test System: E. coli, Strain/Indicator: WPM uvrA/pKM101, Metabolic Activation: Rat, Liver, S-9, Aroclor 1254 (10%), Method: Preincubation) “active; positive”.

The values above are taken from PubChem BioAssay AID1259407 (Chemical Carcinogenesis Research Information System (CCRIS), 2018).
